“And” between values parts separate entries of the source, which are not always exact repeats. Equal entries are not always repeated. Where two headings read alike, the source gives them in different places.
Key:
Experiment in all cases: BLI direct binding
Set-up in all cases: species or system A. thaliana
SPCH_ACTL = molecular target: T1, SPCH_ACTL (Arabidopsis thaliana, UniProt Q700C7)
T1 construct: SPCH-ACTL (285-364); GST (N, cleaved yes); made in house; host or cells: E. coli BL21
Description: (§1) A. thaliana SCRM (1-494), ΔNSPCH (98-364), MUTE (1-202), ΔNFAMA (190-414), MUTEΔC (1-114), MUTER133A_R134A, MUTEE162A_E163A, MUTER133A_R134A_E162A_E163A, SCRM-ACTL (405-494), MUTE-ACTL (114-202), SPCH-ACTL (285-364), FAMA-ACTL (306-414), MUTE_ACTLR133A_R134A, MUTE_ACTLE162A_E163A, MUTE_ACTLR133A_R134A_E162A_E163A were cloned into pGEX-4T-1 vector with an N-terminal GST tag and a thrombin cleavage sequence. For protein expression, the constructs were transformed into E. coli strain BL21. For each transformant, a single colony was selected and incubated in 10 ml LB liquid media. The overnight-incubated E. coli suspensions were transferred to 1 L LB medium and incubated at 37 °C for around 2 h until the OD600 reached 0.4–0.6. The isopropyl β-D-1-thiogalactopyranoside ([…] of final concentration) was added to the cultures and the strains were incubated at 22 °C for a further 18 h. GST-fused proteins were purified using glutathione agarose resin. The soluble portion of the cell lysate was loaded onto a GST-Sepharose column. Nonspecifically bound proteins were removed by washing the column with 20 mM Tris pH 8.0, 200 mM NaCl. The bound GST-fused protein was eluted with 10 mm glutathione and 20 mM Tris pH 8.0, 200 mM NaCl. The GST-fused proteins were exchanged with phosphate-buffered saline buffer, and then the solution was treated with 50 μg of thrombin for 10–12 h at 16 ^οC. The GST portion of the protein was cleaved during thrombin digestion, and then the whole solution was reloaded onto the glutathione S-transferase column to obtain pure protein. The purified proteins were further purified by gel filtration on a Superdex-200 (GE) column using fast protein liquid chromatography and phosphate buffer (pH 7.2) as the eluent. The purity of the protein was checked by SDS-PAGE. For detailed lists of oligo DNA and plasmid information, see Supplementary Tables 5, 6, respectively.
(§2) The binding affinities of SCRM to MUTE / MUTER133A_R134A / MUTEE162A_E163A / MUTER133A_R134A_E162A_E163A in presence and absence of Stomidazolone (3) and its analogues (AYSJ1059 (5) and AYSJ1061 (6)), and Stomidazolone / AYSJ1059 / AYSJ1061 interactions with GST-tagged SCRM, MUTE, SPCH, FAMA, MUTE ΔACTL, MUTE_ACTL, SCRM_ACTL, SPCH_ACTL and FAMA_ACTL, MUTER133A_134A, MUTEE162A_E163A, MUTER133A_R134A_E162A_E163A were measured using the Octet Red96 system (ForteBio, Pall Life Sciences) following the manufacturer’s protocols. The optical probes coated with anti-GST were first loaded with 500 nM GST tagged proteins before kinetic binding analyses. The experiment was performed in 96-well plates maintained at 30 °C. Each well was loaded with 200 μL reaction volume for the experiment. The binding buffer used in these experiments contained 1× PBS supplemented with 2% DMSO, 0.02% Tween20. The concentrations of the Stomidazolone as the analyte in the binding buffer were 100, 50, 25, 12.5, 6.25, 3.12, and 1.56 μM. There was no binding of the analytes to the unloaded probes as shown by the control wells. Binding kinetics to all seven concentrations of the analytes were measured simultaneously using default parameters on the instrument. The data were analyzed using the Octet data analysis software. The association and dissociation curves were fit with the 1:1 homogeneous ligand model. The kobs (observed rate constant) values were used to calculate Kd, with steady-state analysis of the direct binding. See Supplementary Table 3 for details.

[1] = molecular target: T2, MUTE_ACTLR133A_R134A_E162A_E163A (Arabidopsis thaliana, UniProt Q9M8K6, E162A/E163A/R133A/R134A); details: for Response: MUTE_R133A_R134A_E162A_E163A on Anti-GST sensor, rep-1, rep-2
T2 construct: MUTE-ACTL (114-202); made in house; host or cells: E. coli BL21
Description: as §1, §2

MUTE_ACTLR133A_R134A = molecular target: T3, MUTE_ACTLR133A_R134A (Arabidopsis thaliana, UniProt Q9M8K6, R133A/R134A); details: for koff: read-out: kdis(1/s), MUTE_R133A_R134A on Anti-GST sensor
T3 construct: MUTE-ACTL (114-202); made in house; host or cells: E. coli BL21
Description: as §1, §2

[2] = MUTE_R133A_R134A on Anti-GST sensor, Stomid 3.12 µM, rep-1, rep-2
[3] = MUTE_R133A_R134A on Anti-GST sensor, Stomid 6.25 µM, rep-1, rep-2
[4] = MUTE_R133A_R134A on Anti-GST sensor, Stomid 12.5 µM, rep-1, rep-2
[5] = MUTE_R133A_R134A on Anti-GST sensor, Stomid 25 µM, rep-1, rep-2
[6] = MUTE_R133A_R134A on Anti-GST sensor, Stomid 50 µM, rep-1, rep-2
[7] = MUTE_R133A_R134A on Anti-GST sensor, Stomid 100 µM, rep-1, rep-2
[8] = MUTE_R133A_R134A on Anti-GST sensor, Stomid 200 µM, rep-1, rep-2

T3 sequence (Q9M8K6 114-202 R133A/R134A): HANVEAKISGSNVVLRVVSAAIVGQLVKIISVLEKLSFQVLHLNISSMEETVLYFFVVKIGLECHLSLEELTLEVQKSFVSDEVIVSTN
T2 sequence (Q9M8K6 114-202 R133A/R134A/E162A/E163A): as the sequence (Q9M8K6 114-202 R133A/R134A) above, with E49A, E50A counted along it
T1 sequence (Q700C7 285-364): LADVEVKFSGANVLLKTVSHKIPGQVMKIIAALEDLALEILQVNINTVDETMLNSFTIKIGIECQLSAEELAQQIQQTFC

## O=C1C(c2ccccc2)=NC(NS(=O)(=O)c2ccccc2)(c2ccccc2)N1S(=O)(=O)c1ccccc1 (stereo not drawn) [Stomidazolone]
SPCH_ACTL; BLI steady state, read-out: KD (SS)
  Kd: 95.2 ± 3.8 µM
SPCH_ACTL; BLI, read-out: KD
  Kd: 88.1 ± 1.1 µM
[1]; BLI steady state, MUTE_ACTL R133A_R134A_E162A_E163A, ND = no binding was detected
  KD (SS): no binding was detected
[1]; Stomid 3.12 µM
  Response: 0.021 and 0.041
[1]; Stomid 6.25 µM
  Response: 0.061 and 0.035
[1]; Stomid 12.5 µM
  Response: 0.063 and 0.047
[1]; Stomid 25 µM
  Response: 0.078 and 0.041
[1]; Stomid 50 µM
  Response: 0.062 and 0.082
[1]; Stomid 100 µM
  Response: 0.075 and 0.108
[1]; Stomid 200 µM
  Response: 0.104 and 0.136
MUTE_ACTLR133A_R134A; BLI, MUTE_ACTL R133A_R134A
  Kd: 120 ± 5.5 µM
MUTE_ACTLR133A_R134A; [2]
  Kd: 127 µM and 126 µM
  RMax: 0.03 and 0.048
  Req/Rmax(%): 93.1% and 100%
  Response: 0.027 and 0.0456
MUTE_ACTLR133A_R134A; [3]
  Kd: 128 µM and 127 µM
  RMax: 0.06 and 0.08
  Req/Rmax(%): 100%
  Response: 0.058 and 0.079
  kobs: 0.00193 s⁻¹ and 0.00258 s⁻¹
  kon: 976 M⁻¹ s⁻¹
MUTE_ACTLR133A_R134A; [4]
  Kd: 126 µM and 124 µM
  RMax: 0.092 and 0.085
  Req/Rmax(%): 93.1% and 100%
  Response: 0.092 and 0.081
  kdis: 0.124 s⁻¹
MUTE_ACTLR133A_R134A; [5]
  Kd: 128 µM and 126 µM
  Req/Rmax(%): 78.8% and 93.9%
  kdis: 0.123 s⁻¹
  kobs: 0.00186 s⁻¹ and 0.00281 s⁻¹
  kon: 975 M⁻¹ s⁻¹
MUTE_ACTLR133A_R134A; [6]
  Kd: 127 µM and 125 µM
  RMax: 0.195 and 0.225
  Response: 0.193 and 0.2221
  kdis: 0.122 s⁻¹
  kon: 976 M⁻¹ s⁻¹
MUTE_ACTLR133A_R134A; [7]
  Kd: 130 µM and 127 µM
  RMax: 0.244 and 0.289
  Req/Rmax(%): 96.5% and 96.6%
  Response: 0.242 and 0.284
  kobs: 0.00717 s⁻¹ and 0.00706 s⁻¹
  kon: 980 M⁻¹ s⁻¹
MUTE_ACTLR133A_R134A; [8]
  Kd: 127 µM and 130 µM
  RMax: 0.344 and 0.38
  Req/Rmax(%): 99.9% and 99.8%
  Response: 0.341 and 0.375
  kdis: 0.125 s⁻¹
  kobs: 0.0285 s⁻¹ and 0.0284 s⁻¹
  kon: 960 M⁻¹ s⁻¹
MUTE_ACTLR133A_R134A; Stomid 3.12 µM, rep-1, rep-2
  koff: 0.122 s⁻¹
MUTE_ACTLR133A_R134A; Stomid 6.25 µM, rep-1, rep-2
  koff: 0.124 s⁻¹
MUTE_ACTLR133A_R134A; Stomid 12.5 µM, rep-1, rep-2
  koff: 0.125 s⁻¹
MUTE_ACTLR133A_R134A; Stomid 25 µM, rep-1, rep-2
  koff: 0.125 s⁻¹
MUTE_ACTLR133A_R134A; Stomid 50 µM, rep-1, rep-2
  koff: 0.123 s⁻¹
MUTE_ACTLR133A_R134A; Stomid 100 µM, rep-1, rep-2
  koff: 0.125 s⁻¹
MUTE_ACTLR133A_R134A; Stomid 200 µM, rep-1, rep-2
  koff: 0.126 s⁻¹
MUTE_ACTLR133A_R134A; read-out: kon(1/Ms), MUTE_R133A_R134A on Anti-GST sensor, Stomid 3.12 µM, rep-1, rep-2
  kon: 966 M⁻¹ s⁻¹
MUTE_ACTLR133A_R134A; read-out: kon(1/Ms), MUTE_R133A_R134A on Anti-GST sensor, Stomid 6.25 µM, rep-1, rep-2
  kon: 970 M⁻¹ s⁻¹
MUTE_ACTLR133A_R134A; read-out: kon(1/Ms), MUTE_R133A_R134A on Anti-GST sensor, Stomid 12.5 µM, rep-1, rep-2
  kon: 990 M⁻¹ s⁻¹
MUTE_ACTLR133A_R134A; read-out: kon(1/Ms), MUTE_R133A_R134A on Anti-GST sensor, Stomid 25 µM, rep-1, rep-2
  kon: 980 M⁻¹ s⁻¹
MUTE_ACTLR133A_R134A; read-out: kon(1/Ms), MUTE_R133A_R134A on Anti-GST sensor, Stomid 50 µM, rep-1, rep-2
  kon: 970 M⁻¹ s⁻¹
MUTE_ACTLR133A_R134A; read-out: kon(1/Ms), MUTE_R133A_R134A on Anti-GST sensor, Stomid 100 µM, rep-1, rep-2
  kon: 960 M⁻¹ s⁻¹
MUTE_ACTLR133A_R134A; read-out: kon(1/Ms), MUTE_R133A_R134A on Anti-GST sensor, Stomid 200 µM, rep-1, rep-2
  kon: 990 M⁻¹ s⁻¹

From PMC11500415, “Chemical inhibition of stomatal differentiation by perturbation of the master-regulatory bHLH heterodimer via an ACT-Like domain” (Nature Communications, 2024)
